Measured values published in ChEMBL document CHEMBL1649170, “Functional characterization of the sigmaB-dependent yabJ-spoVG operon in Staphylococcus aureus: role in methicillin and glycopeptide resistance” (2009).
In brackets after ≈: the same amount, converted by molar mass.

Assays:
Assay type in all cases: functional
[1] = system: Staphylococcus aureus; assay: Antimicrobial activity against erythromycin-resistant and rsbUVW-sigB operon deficient Staphylococcus aureus COL by broth microdilution method
[2] = system: Staphylococcus aureus; assay: Antimicrobial activity against erythromycin-resistant, tetracycline-sensitive and rsbUVW-sigB operon deficient Staphylococcus aureus COL mutant by broth microdilution method
[3] = system: Staphylococcus aureus; assay: Antimicrobial activity against erythromycin-, tetracycline resistant and yabJ-spoVG operon deficient Staphylococcus aureus COL by broth microdilution method
[4] = system: Staphylococcus aureus; assay: Antimicrobial activity against methicillin- and tetracycline resistant Staphylococcus aureus COL by broth microdilution method
[5] = system: Staphylococcus aureus; assay: Antimicrobial activity against methicillin-resistant and tetracycline-sensitive Staphylococcus aureus COL mutant by broth microdilution method
[6] = system: Staphylococcus aureus; assay: Antimicrobial activity against erythromycin-resistant, tetracycline-sensitive and yabJ-spoVG operon deficient Staphylococcus aureus COL mutant by broth microdilution method

Cc1onc(-c2ccccc2)c1C(=O)N[C@@H]1C(=O)N2[C@@H]1SC(C)(C)[C@@H]2C(=O)O [OXACILLIN]
MIC [1]: 256 µg/mL (≈ 638 µM) | MIC [2]: > 256 µg/mL | MIC [3]: 128 µg/mL (≈ 319 µM) | MIC [4]: > 256 µg/mL | MIC [5]: > 256 µg/mL | MIC [6]: > 256 µg/mL
